Assay results as given in patent publication US6608082B1, “Treatment of erectile dysfunction using isoquinoline compound melanocortin receptor ligands” (Lion Bioscience AG, priority 1998, dated 2003).
Like-named read-outs stand apart in the source and are kept apart here. Blank lines part the entries; values can stand above or below the compound they belong to.

Experiments:
MCR-1 = molecular target: T1, MCR-1 (Homo sapiens, UniProt Q01726); assay: Melanocortin receptor binding assay, competition with 125I-HP 467, HEK 293 cells expressing hMCR-1; settings: for IC50: read-out: MC-1 IC50; for % Disp. MC-1 10 μM: displacement of 125I-HP 467 at 10 μM isoquinoline compound
T1 construct: expressed in transfected cells; host or cells: HEK 293
Procedure, shortened: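 Intact-cell competition binding, 2.5 hr at 37 °C, in PBS/10% calf serum/1 mM CaCl2; hMCR-4 cells at 4×10^3 per tube, hMCR-1 cells at 2×10^4 per tube. Filtration on BSA/CaCl2-soaked GF/B, cold 50 mM Tris pH 7.4 washes, scintillation count.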

MCR-4 = molecular target: T2, MCR-4 (Homo sapiens, UniProt P32245); assay: Melanocortin receptor binding assay, competition with 125I-HP 467, HEK 293 cells expressing hMCR-4; settings: for IC50: read-out: MC-4 IC50
T2 construct: expressed in transfected cells; host or cells: HEK 293
Procedure: All cell culture media and reagents were obtained from GibcoBRL (Gaithersburg Md.), except for COSMIC CALF SERUM (HyClone; Logan Utah).
Cells were suspended in PBS, 10% COSMIC CALF SERUM and 1 mM CaCl2. Cell suspensions were prepared at a density of 2×10^4 cells/ml for HEK 293 cells expressing hMCR-3, hMCR-4 or hMCR-5, and 1×10^5 cells/ml for HEK 293 cells expressing hMCR-1. Suspensions were placed in a water bath and allowed to warm to 37° C. for 1 hr.
Binding assays were performed in a total volume of 250 μl for HEK 293 cells. […] To each tube was added 4×10^3 HEK 293 cells expressing hMCR-3, hMCR-4 or hMCR-5, or 2×10^4 cells expressing hMCR-1. Assays were incubated for 2.5 hr at 37° C.
GF/B filter plates were prepared by soaking for at least one hour in 5 mg/ml BSA and 10 mM CaCl2. Assays were filtered using a Brandel 96-well cell harvester (Brandel Inc.; Gaithersburg, Md.). The filters were washed four times with cold 50 mM Tris, pH 7.4, the filter plates were dehydrated for 2 hr and 35 μl of MICROSCINT was added to each well. Filter plates were counted using a Packard Topcount (Packard Instrument Co.) and data analyzed using GraphPad PRISM v2.0 (GraphPad Software Inc.; San Diego Calif.) and Microsoft EXCEL v5.0a (Microsoft Corp.; Redmond Wash.).
To assay isoquinoline compounds, binding assays were performed in duplicate in a 96 well format. […] A 0.2 ml aliquot of suspended cells was added to each well to give the cell numbers indicate above, and the cells were incubated at 37° C. for 2.5 hr. Cells were harvested on GF/B filter plates as described above and counted.

[1] = inhibition of binding of 125I-HP 467, HEK 293 cells expressing MCR-1, TRG 2414 library
[2] = inhibition of binding of 125I-HP 467, HEK 293 cells expressing MCR-4, TRG 2414 library
[3] = TRG 2408 and TRG 2409 libraries, inhibition of 125I-HP 467 binding
[4] = competition with 125I-HP 467, HEK 293 cells expressing MCR-1
[5] = competition with 125I-HP 467, HEK 293 cells expressing MCR-4
[6] = TRG 2406 and TRG 2407 libraries, inhibition of binding of 125I-HP 467
[7] = inhibition of binding of 125I-HP 467, HEK 293 cells expressing MCR-1
[8] = inhibition of binding of 125I-HP 467, HEK 293 cells expressing MCR-4

T2 sequence (P32245 whole entry): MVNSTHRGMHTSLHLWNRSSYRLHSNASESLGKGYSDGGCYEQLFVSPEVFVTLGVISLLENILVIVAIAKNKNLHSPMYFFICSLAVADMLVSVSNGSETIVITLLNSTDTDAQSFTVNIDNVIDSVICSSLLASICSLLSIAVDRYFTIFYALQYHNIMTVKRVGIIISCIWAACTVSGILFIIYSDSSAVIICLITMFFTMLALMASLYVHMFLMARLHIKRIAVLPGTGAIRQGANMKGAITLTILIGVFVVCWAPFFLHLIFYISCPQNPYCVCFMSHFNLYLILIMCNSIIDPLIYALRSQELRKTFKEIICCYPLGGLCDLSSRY
T1 sequence (Q01726 whole entry): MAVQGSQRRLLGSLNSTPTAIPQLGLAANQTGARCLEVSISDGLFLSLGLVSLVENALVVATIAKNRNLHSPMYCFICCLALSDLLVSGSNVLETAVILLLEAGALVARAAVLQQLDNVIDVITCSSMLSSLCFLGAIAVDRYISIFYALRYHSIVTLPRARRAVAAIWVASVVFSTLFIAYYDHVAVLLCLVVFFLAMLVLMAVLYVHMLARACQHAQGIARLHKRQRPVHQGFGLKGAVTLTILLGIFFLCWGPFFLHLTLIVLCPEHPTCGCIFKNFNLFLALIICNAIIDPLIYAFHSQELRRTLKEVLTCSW

IC50 (MCR-1; [1]): 0.518 µM
IC50 (MCR-4; [2]): 5.34 µM
Structure (SMILES): CCCOc1ccc(C2C(CNCCc3ccccc3OC)c3ccccc3CN2CCCCC(N)CN)cc1 (centres unmarked) [TRG 2414-169]

IC50 (MCR-1; [1]): 3.3 µM
IC50 (MCR-4; [2]): 0.26 µM
Structure (SMILES): COc1ccc(CCNCC2c3ccccc3CN(CCCCC(N)CN)C2c2cc(C(F)(F)F)cc(C(F)(F)F)c2)cc1 (centres unmarked) [TRG 2414-65]

IC50 (MCR-1; [1]): 21.9 µM
MC-4 IC50 (MCR-4; [2]): no fit
Structure (SMILES): CCCOc1ccc(C2C(CNCCc3cccc(Cl)c3)c3ccccc3CN2CCCCC(CN)NCC(C)c2ccc(CC(C)C)cc2)cc1 (centres unmarked) [TRG 2414-176]

IC50 (MCR-1; [3]): 1.46 µM
IC50 (MCR-4; [3]): 2.5 µM
Structure (SMILES): CNC(CN)CCCN1Cc2ccccc2C(CNC2CCCCC2)C1c1ccc(Cl)cc1Cl (centres unmarked) [TRG 2408-70]

IC50 (MCR-1; [1]): 1.26 µM
IC50 (MCR-4; [2]): 0.73 µM
Structure (SMILES): COc1ccccc1CCNCC1c2ccccc2CN(CCCCC(N)CN)C1c1cccc(Oc2ccccc2)c1 (centres unmarked) [TRG 2414-89]

IC50 (MCR-1; [1]): 3.27 µM
IC50 (MCR-4; [2]): 7.31 µM
Structure (SMILES): COc1cccc(CNCC2c3ccccc3CN(CCCCC(CN)NCc3ccccc3)C2c2ccc(Cl)cc2Cl)c1 (centres unmarked) [TRG 2414-19]

IC50 (MCR-1; [4]): 0.3 µM
IC50 (MCR-4; [5]): 1.42 µM
Structure (SMILES): NCC(CCCCN1Cc2ccccc2C(CN)C1c1ccc(-c2ccccc2)cc1)NCCO (centres unmarked) [TRG 2411-29]

IC50 (MCR-1; [1]): 17 µM
IC50 (MCR-4; [2]): 9.06 µM
Structure (SMILES): NCC(CCCCN1Cc2ccccc2C(CNCc2ccccc2)C1c1cc(C(F)(F)F)cc(C(F)(F)F)c1)NCc1ccccc1 (centres unmarked) [TRG 2414-71]

IC50 (MCR-1; [1]): 12.5 µM
IC50 (MCR-4; [2]): 3.12 µM
Structure (SMILES): NCC(CCCCN1Cc2ccccc2C(CNCCc2cccc(Cl)c2)C1c1cc(C(F)(F)F)cc(C(F)(F)F)c1)NCc1ccccc1 (centres unmarked) [TRG 2414-55]

IC50 (MCR-1; [6]): 6.25 µM
IC50 (MCR-4; [6]): 1.53 µM
Structure (SMILES): CCn1c2ccccc2c2cc(C3C(CNCc4ccccc4O)c4ccccc4CN3CC(CN)NC)ccc21 (centres unmarked) [TRG 2406-21]

IC50 (MCR-1; [7]): 2.39 µM
IC50 (MCR-4; [8]): 5 µM
Structure (SMILES): CCCCOc1ccc(C2C(CO)c3ccccc3CN2CCCC(CN)NCCC2CCCCC2)cc1 (centres unmarked) [TRG 2415-6]

MC-1 IC50 (MCR-1; [1]): no fit
IC50 (MCR-4; [2]): 42.9 µM
Structure (SMILES): NCC(CCCCN1Cc2ccccc2C(CNCc2ccccc2C(F)(F)F)C1c1cccc(Oc2ccccc2)c1)NCCc1ccccc1 (mixture of isomers) [TRG 2414-82]

IC50 (MCR-1; [1]): 5.8 µM
IC50 (MCR-4; [2]): 15.9 µM
Structure (SMILES): NCC(N)CCCCN1Cc2ccccc2C(CNCCc2cccc(Cl)c2)C1c1ccc(Oc2ccccc2)cc1 (centres unmarked) [TRG 2414-133]

IC50 (MCR-1; [4]): 0.83 µM
IC50 (MCR-4; [5]): 1.8 µM
Structure (SMILES): CCCCNC(CN)CCCCN1Cc2ccccc2C(CNCCc2ccccc2)C1c1ccc(-c2ccccc2)cc1 (centres unmarked) [TRG 2411-11]

Structure (SMILES): CCOc1ccc(CCNCC2c3ccccc3CN(CCCCC(CN)NCc3ccc(OC)cc3)C2c2cccc(C(F)(F)F)c2)cc1 (centres unmarked) [TRG 2421-46]
IC50 (MCR-1; [7]): 1.58 µM
IC50 (MCR-4; [8]): 3.61 µM

IC50 (MCR-1; [1]): 7.74 µM
IC50 (MCR-4; [2]): 7.51 µM
Structure (SMILES): CCOc1ccccc1CNCC1c2ccccc2CN(CCCCC(CN)NCc2ccccc2)C1c1cc(C(F)(F)F)cc(C(F)(F)F)c1 (centres unmarked) [TRG 2414-47]

IC50 (MCR-1; [4]): 1.17 µM
IC50 (MCR-4; [5]): 0.49 µM
Structure (SMILES): NCC(CCCN1Cc2ccccc2C(CN)C1c1ccc(-c2ccccc2)cc1)NCc1ccccc1 (centres unmarked) [TRG 2411-149]

IC50 (MCR-1; [3]): 1.82 µM
IC50 (MCR-4; [3]): 21.7 µM
Structure (SMILES): CCNc1ccc(C2C(CNCc3ccccc3OC)c3ccccc3CN2CCC(CN)NCCN)cc1 (centres unmarked) [TRG 2408-89]

IC50 (MCR-1; TRG 2414 library, inhibition of binding of 125I-HP 467, HEK 293 cells expressing MCR-1): 40.6 µM
IC50 (MCR-4; TRG 2414 library, inhibition of binding of 125I-HP 467, HEK 293 cells expressing MCR-4): 35.1 µM
Structure (SMILES): COc1cccc(CNCC2c3ccccc3CN(CCCCC(CN)NCC(C)c3ccc(CC(C)C)cc3)C2c2ccccc2Br)c1 (centres unmarked) [Cmpd 220]

IC50 (MCR-1; [6]): 2.53 µM
IC50 (MCR-4; [6]): 6.22 µM
Structure (SMILES): CNC(CN)CCCCN1Cc2ccccc2C(CNc2ccc(OC)cc2)C1c1ccc(Cl)cc1Cl (centres unmarked) [TRG 2407-9]

IC50 (MCR-1; TRG 2405 section, inhibition of binding of 125I-HP 467, HEK 293 cells expressing MCR-1): 5.98 µM
% Disp. MC-1 10 μM (MCR-1; first of duplicate): 57.1%
% Disp. MC-1 10 μM (MCR-1; second of duplicate): 59.8%
IC50 (MCR-4; TRG 2405 section, inhibition of binding of 125I-HP 467, HEK 293 cells expressing MCR-4): 33.5 µM
Structure (SMILES): NCCN1Cc2ccccc2C(CNC2CCCCC2)C1c1ccc[nH]1 (centres unmarked) [TRG 2405-85]
